We go through eight substances from article PMC8302598, “Rapid discovery of self-assembling peptides with one-bead one-compound peptide library” (Nature Communications, 2021).

A short description of data set [1]: Critical micelle concentration (CMC). As to conditions: soluble HPLC-purified peptide, aqueous. The class given is physicochemical. Here is the method:
To estimate the propensity of the identified peptides to self-assemble, the critical micelle concentrations (CMC) of the eight positive peptides and four negative peptides were determined, and the results are shown in Table 1 and Supplementary Figs. 13, 14. The CMC of all the eight positive peptides were detectable and found to range between 8.4 and 14.8 μM, indicating the propensity for these peptides to self-assemble under aqueous environment. […] Hydrophobicity of peptides can be predicted by the value of GRAVY[28] with more negative value for more hydrophilic peptides. Of the four negative assembling peptides, two have a negative GRAVY value. […] Experimental testing, such as the screening strategy described in this work, is needed. This is because multiple factors, including hydrophobicity, hydrogen-bonding, electrostatic interactions, and positions of each residue within the peptides, all contribute to the assembling and final morphology of the self-assembled nano-structure.

The subject of data set [2] is HeLa cells. In words: Cell uptake pathway analysis (4 °C and endocytosis inhibitors). As to conditions: for Cell uptake in the presence of amiloride and M-β-CD: 50 μM peptide; for Cell uptake in the presence of amiloride and M-β-CD / Cell uptake mechanism: amiloride 2 mM, M-β-CD 5 mM; for Cell uptake mechanism: 50 μM, 37 or 4 °C, chlorpromazine 50 μM, CLSM, n=3; for Cell uptake at 4 °C: FITC-labeled nano-assembly (3% labeled), 4 °C vs 37 °C. It counts as cell-based. Here is the method: Finally, we examined the biological effects and cellular distribution of the eight self-assembling peptides on HeLa cells. […] In order to observe the nanomaterials under fluorescent microscopy, each peptide preparation was spiked with 3% of the same peptide N-terminally labeled with FITC, and then added to HeLa cells at a final concentration of 40 μM. […] After 4 h of incubation with the peptide assemblies, the cells were observed under a fluorescent microscope (Figs. 4c, d and Supplementary 22). […] It is important to note that LDFPI nanoparticle was small (8 nm diameter) even after 4 h incubation. Its small size may in part explain its ability to pass through the nuclear pore complexes[32],[33]. […] To evaluate the cell uptake mechanism of peptide assemblies (YFTEF, ISDNL, and FGFDP) into the cytoplasm, we treated the cells at 4 °C or with various endocytosis inhibitors (Supplementary Fig. 23). […]
Supplementary Figure 23 . Cell uptake pathway analysis for FITC-labeled pentapeptide assemblies YFTEF, ISDNL and […]. a) CLSM images of HeLa cells incubated with pentapeptides (50 μ M ) at di fferent temperatures (37 or 4 °C) and in the presence of various endocytosis inhibitors, such as amiloride (2 mM), M-β-CD (5 mM), and chlorpromazine (50 μM). The scale bar is 10 μm. b) Relevant quantitative analysis of images from ‘a’. 3% of the assembled peptides was N-terminally labeled with FITC, E rror ba rs represent Standard Deviation (n=3). […]
(§1) To elucidate the cell uptake pathways of pentapeptides, we quantified the fluorescence intensity of the HeLa cells after incubation with FITC-labeled nano-assembly of YFTEF, ISDNL, FAGFT, FGFDP, at 37 and 4 °C, respectively (3% of the peptide assembly were N-terminally labeled with FITC for tracking). There were nearly no uptake of pentapeptides by HeLa cells at 4 °C, which is consistent with mechanism of cell uptake by endocytosis. We have also examined the effects of cell uptake by various endocytosis inhibitors: amiloride (2 mM, inhibitor of endocytosis), M-β-CD (5 mM, inhibitor of caveolae-dependent endocytosis), and chlorpromazine (50 μM, inhibitor of clathrin-dependent endocytosis).
(§2) (1 picture or pasted object on this page, not shown here)
Figure R11. Cell uptake pathway detection. a) CLSM images of HeLa cells incubated with pentapeptides (50 μM) at different temperatures (37 or 4 °C) and in the presence of various endocytosis inhibitors, such as amiloride (2 mM), M-13-CD (5 mM), and chlorpromazine(50 μM), respectively. The scale bar is 10 μm. b) Relevant quantitative analysis in ‘a’. […]

Data set [3] concerns HeLa cells. In words: Time-dependent co-localization of FITC-labeled peptides with lysosomes (CLSM). It counts as cell-based. As to conditions: 50 μM; for Pearson correlation coefficient, peptide vs lysosomes, 2 h: peptide for 2 h; for Pearson correlation coefficient, peptide vs lysosomes, 4 h: peptide for 2 h and DMEM for 2 h; for Pearson correlation coefficient, peptide vs lysosomes, 8 h: peptide for 2 h and DMEM for 6 h. Here is the method: Supplementary Figure 24. a) Time-dependent (2, 4, 8 h) CLSM images for monitoring and quantitatively analyzing uptake of fluorescent peptide assemblies (YFTEF, ISDNL, and FGFDP at 50 μM) by HeLa cells. The scale bar is 10 μm. b) Corresponding colocalization analysis of images from ‘a’. […]
Regarding the entrance of nanoparticles into HeLa cells, we have carried out additional experiments to address reviewer’s concern. To track the biodistribution of these peptides in the cytosol, peptides YFTEF, ISDNL and FGFDP were labeled by addition of FITC-labeled peptides (FITC-YFTEF, FITC-ISDNL, FITC-FGFDP) at 3% level, respectively, prior to self-assembly, and then incubated with HeLa cells for 2 h. The incubated cells were then washed with PBS three times and further incubated with Dulbecco's modified eagle medium without peptide for another 2 and 6 h. The lysosomes of the cells were stained with red fluorescence after 2 (peptide for 2 h), 4 (peptide for 2 h and DMEM for 2 h), or 8 h (peptide for 2 h and DMEM for 6 h) incubation, followed by CLSM observation.
For ISDNL, good co-localization (Pearson correlation coefficient: 0.92) between peptides and lysosomes […]
lysosomes (colocalization from 0.92 at 2 h, to 0.76 at 4 h and 0.69 at 8 h).
ISDNL based nanoparticles could escape from lysosomes over time.
For YFTEF, good co-localization (yellow fluorescence) between YFTEF (green fluorescence) and with […]
The co-localization efficiency for YFTEF and lysosomes remained high over time (4 h, 0.93; 8 h, 0.91).
For FGFDP, the Pearson correlation coefficient of lysosome was determined to be about 0.7 for 2 (0.74), 4 (0.79), 8 h (0.72). It seems that FGFDP might have escaped from lysosomes prior to the 2 h time point.
In order to confirm this hypothesis, we did the co-localization study at earlier time points: 30 min to 1 h.
The results reveal that FGFDP increased the distribution in the lysosome from 30 min (Pearson correlation coefficient: 0.59) to 1 h (Pearson correlation coefficient: 0.94), and then decreased to 0.74 at 2h. These […]
escape from lysosomes sometime between 1-2 h.

Data set [4] concerns HeLa cells. In words: Cell uptake efficiency by fluorescence of lysed cells. The class given is cell-based. As to conditions: HeLa cells incubated with peptides 4 h, fluorescence quantified. Here is the method:
and FGFDP entered lysosome and then escaped. The ISDNL escaped in 4 h, and FGFDP escaped between 1-2 h. Both ISDNL and FGFDP had capability of lysosomal escape, which may be useful for gene or nucleic acid delivery, as implied by the reviewer.
Figure R10. a. Time-dependent CLSM images for monitoring and quantitatively analyzing HeLa cells incubated with 50 μM pentapeptide nano-assembly of YFTEF, ISDNL, and FGFDP, b. corresponding co-localization analysis of experiment shown in “a”.
To confirm how efficient the peptides (YFTEF, ISDNL, and FGFDP) enter living cells, HeLa cells were incubated with peptides for 4 h, the cells were then lysed and fluorescence quantified to calculate the […]
Table R2. Cell uptake efficiency of peptides. […]
as §1, §2

Data set [5] can be described thus: Turbidity test (transmittance spectra). It counts as physicochemical. As to conditions: 20 μM peptide in water. The method, then:
To further confirm the peptide assembling in water, the solutions of pentapeptide were diluted to 20 μM for turbidity test.

Where [6] appears, read: FITC-labeled peptide/Lyso-Tracker co-localization.

Values joined by “and” are separate entries in the source; they are usually repeats but may differ in a detail not shown here. Equal entries are not always repeated. “Also recorded” adds a separate entry of the source.

In turn, “ITSVV [self-assembling pentapeptide identified from OBOC library]” gave a CMC in data set [1] of 14.8 µM.

“ISDNL [self-assembling pentapeptide identified from OBOC library]” returned a CMC in data set [1] of 9.4 µM. In the data set with HeLa cells [2], the “Cell uptake in the presence of amiloride and M-β-CD” value is recorded as “significantly decreased”; the Cell uptake mechanism entry is “caveolae-dependent endocytosis and micropinocytosis”; the “Cell uptake at 4 °C” value is recorded as “nearly no uptake”. Moreover, in the data set with HeLa cells [3] (3% FITC-labeled peptide), the “Pearson correlation coefficient, peptide vs lysosomes, 2 h” value worked out at 0.92. In the data set with HeLa cells [3], the “Pearson correlation coefficient, peptide vs lysosomes, 4 h” value is given as 0.76 and the “Pearson correlation coefficient, peptide vs lysosomes, 8 h” value stood at 0.69. This substance also had a Cell uptake efficiency in the data set on HeLa cells [4] of 2.2%.

In data set [1], “YFTEF [self-assembling pentapeptide identified from OBOC library]” showed a CMC of 11.4 µM. Besides, the “Transmittance at 400 nm” value in data set [5] is 98%. Further, in the data set on HeLa cells [2], the Cell uptake mechanism result is “clathrin dependent endocytosis” and the “Cell uptake at 4 °C” value is on record as “nearly no uptake”. Also, in the data set on HeLa cells [3] (3% FITC-labeled peptide), the “Pearson correlation coefficient, peptide vs lysosomes, 2 h” value amounted to 0.92. For the same substance, the Retention in lysosomes entry with HeLa cells [3] (setting [6]) is “remained in lysosomes at 8 h; also recorded: remained in lysosomes for 8 h without obvious escape”. Besides, in the data set on HeLa cells [3], the “Pearson correlation coefficient, peptide vs lysosomes, 4 h” value came to 0.93 and the “Pearson correlation coefficient, peptide vs lysosomes, 8 h” value is on record as 0.91. The Cell uptake efficiency in the data set on HeLa cells [4] turned out to be 3.9%.

For the substance “FTISD [self-assembling pentapeptide identified from OBOC library]”, in data set [1], the CMC was found to be 10.04 µM.

In turn, “FGFDP [self-assembling pentapeptide identified from OBOC library]” showed a CMC in data set [1] of 14.8 µM. For the same substance, in the data set on HeLa cells [2], the Cell uptake mechanism result was “both caveolae-dependent and clathrin-dependent endocytosis”; the “Cell uptake at 4 °C” value was “nearly no uptake”. For the same substance, the “Pearson correlation coefficient, peptide vs lysosomes, 30 min” value with HeLa cells [3] (3% FITC-labeled peptide, 30 min) is listed as 0.59. For the same substance, the “Pearson correlation coefficient, peptide vs lysosomes, 1 h” value with HeLa cells [3] (3% FITC-labeled peptide, 1 h) is 0.94. Besides, in the data set on HeLa cells [3] (3% FITC-labeled peptide), the “Pearson correlation coefficient, peptide vs lysosomes, 2 h” value is on record as 0.74. Also, the “Time of escape from lysosomes” value in the data set with HeLa cells [3] (setting [6]) was 1 to 2 h and ~1.5 h. Further, in the data set on HeLa cells [3], the “Pearson correlation coefficient, peptide vs lysosomes, 4 h” value is listed as 0.79 and the “Pearson correlation coefficient, peptide vs lysosomes, 8 h” value amounted to 0.72. The substance further displayed a Cell uptake efficiency with HeLa cells [4] of 4.8%.

In the case of “LDFPI [self-assembling pentapeptide identified from OBOC library]”, the CMC in data set [1] came out at 8.4 µM.

With “FFVDF [self-assembling pentapeptide identified from OBOC library, forms nanofibers]”, the CMC in data set [1] stood at 14.4 µM. Besides, in data set [5], the “Transmittance at 400 nm” value was 88%.

The substance “FAGFT [self-assembling pentapeptide identified from OBOC library]” came in with a CMC in data set [1] of 13.9 µM. Besides, in the data set on HeLa cells [2], the “Cell uptake in the presence of amiloride and M-β-CD” value is “significantly decreased”; the “Cell uptake at 4 °C” value is recorded as “nearly no uptake”.
